# Assay results published in ChEMBL document CHEMBL1201862, “PubChem BioAssay data set” (2004).
#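 Step 1: Grow cells in 96-well plates. Step 2: Expose to compound for 48 hours at 5 concentrations. Step 3: Interpolate endpoints linearly; if unreached, use highest concentration. At the GI50, growth is halved.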 Active and inactive are the calls of the source. Cut-off read from the data, not from the text of the source: active = GI50 up to about 1.1 µM and inactive = higher.
# Experiments:
# Experiment in all cases: NCI anticancer screen, dose series, 48 h
# OVCAR-4 = tested on: OVCAR-4
# UO-31 = tested on: UO-31
# CAKI-1 = tested on: CAKI-1
# OVCAR-5 = tested on: OVCAR-5
# NCI-H460 = tested on: NCI-H460
# SK-MEL-2 = tested on: SK-MEL-2
# SF-295 = tested on: SF-295
# SNB-19 = tested on: SNB-19
# SF-268 = tested on: SF-268
# HCT-15 = tested on: HCT-15
# HOP-92 = tested on: HOP-92
# 786-0 = tested on: 786-0
# SNB-75 = tested on: SNB-75
# ACHN = tested on: ACHN
# SR = tested on: SR
# DMS-273 = tested on: DMS-273
# OVCAR-8 = tested on: OVCAR-8
# NCI-H226 = tested on: NCI-H226
# HL-60 = tested on: HL-60
# LOX IMVI = tested on: LOX IMVI
# M14 = tested on: M14
# RXF 393 = tested on: RXF 393
# U-251 = tested on: U-251
# HCT-116 = tested on: HCT-116
# SK-MEL-5 = tested on: SK-MEL-5
# Malme-3M = tested on: Malme-3M
# A549 = tested on: A549
# SN12C = tested on: SN12C
# NCI-H522 = tested on: NCI-H522
# HT-29 = tested on: HT-29
# HCC 2998 = tested on: HCC 2998
# SNB-78 = tested on: SNB-78
# K562 = tested on: K562
# CCRF-CEM = tested on: CCRF-CEM
# OVCAR-3 = tested on: OVCAR-3
# SF-539 = tested on: SF-539
# NCI-H23 = tested on: NCI-H23
# COLO 205 = tested on: COLO 205
# UACC-62 = tested on: UACC-62
# SK-MEL-28 = tested on: SK-MEL-28
# KM-20L2 = tested on: KM-20L2
# IGROV-1 = tested on: IGROV-1
# DMS-114 = tested on: DMS-114
# A498 = tested on: A498
# UACC-257 = tested on: UACC-257
# RPMI-8226 = tested on: RPMI-8226
# HOP-62 = tested on: HOP-62
# M19-MEL = tested on: M19-MEL
# MOLT-4 = tested on: MOLT-4
# TK-10 = tested on: TK-10
# SW-620 = tested on: SW-620
# KM12 = tested on: KM12
# SK-OV-3 = tested on: SK-OV-3
# EKVX = tested on: EKVX
smiles,measurement,setting,value
CN(C)C(=S)N=C(Nc1ccccc1)Nc1ccccc1,GI50,OVCAR-4,> 100 µM (inactive)
same,GI50,UO-31,> 100 µM (inactive)
same,GI50,CAKI-1,> 100 µM (inactive)
same,GI50,OVCAR-5,> 100 µM (inactive)
same,GI50,NCI-H460,> 100 µM (inactive)
same,GI50,SK-MEL-2,> 100 µM (inactive)
same,GI50,SF-295,> 100 µM (inactive)
same,GI50,SNB-19,> 100 µM (inactive)
same,GI50,SF-268,> 100 µM (inactive)
same,GI50,HCT-15,> 100 µM
same,GI50,HOP-92,> 100 µM (inactive)
same,GI50,786-0,> 100 µM (inactive)
same,GI50,SNB-75,91 µM (inactive)
same,GI50,ACHN,> 100 µM (inactive)
same,GI50,SR,> 100 µM (inactive)
same,GI50,DMS-273,> 100 µM (inactive)
same,GI50,OVCAR-8,> 100 µM (inactive)
same,GI50,NCI-H226,> 100 µM (inactive)
same,GI50,HL-60,> 100 µM (inactive)
same,GI50,LOX IMVI,> 100 µM (inactive)
same,GI50,M14,> 100 µM (inactive)
same,GI50,RXF 393,> 100 µM (inactive)
same,GI50,U-251,> 100 µM (inactive)
same,GI50,HCT-116,> 100 µM (inactive)
same,GI50,SK-MEL-5,> 100 µM (inactive)
same,GI50,Malme-3M,> 100 µM (inactive)
same,GI50,A549,> 100 µM (inactive)
same,GI50,SN12C,> 100 µM (inactive)
same,GI50,NCI-H522,> 100 µM (inactive)
same,GI50,HT-29,> 100 µM (inactive)
same,GI50,HCC 2998,> 100 µM (inactive)
same,GI50,SNB-78,> 100 µM (inactive)
same,GI50,K562,> 100 µM (inactive)
same,GI50,CCRF-CEM,> 100 µM (inactive)
same,GI50,OVCAR-3,> 100 µM (inactive)
same,GI50,SF-539,> 100 µM (inactive)
same,GI50,NCI-H23,> 100 µM (inactive)
same,GI50,COLO 205,> 100 µM (inactive)
same,GI50,UACC-62,> 100 µM (inactive)
same,GI50,SK-MEL-28,> 100 µM (inactive)
same,GI50,KM-20L2,> 100 µM (inactive)
same,GI50,IGROV-1,> 100 µM (inactive)
same,GI50,DMS-114,> 100 µM (inactive)
same,GI50,A498,> 100 µM (inactive)
same,GI50,UACC-257,> 100 µM (inactive)
same,GI50,RPMI-8226,> 100 µM (inactive)
same,GI50,HOP-62,> 100 µM (inactive)
same,GI50,M19-MEL,> 100 µM (inactive)
same,GI50,MOLT-4,> 100 µM (inactive)
same,GI50,TK-10,> 100 µM (inactive)
same,GI50,SW-620,> 100 µM (inactive)
same,GI50,KM12,> 100 µM (inactive)
same,GI50,SK-OV-3,> 100 µM (inactive)
same,GI50,EKVX,> 100 µM (inactive)
